Experimental data from patent publication US8846951B2 (AbbVie Inc., priority 2009, dated 2014).
Where two headings read alike, the source gives them in different places.

Key:
[1] = molecular target: T1, 5HT2B receptors (Homo sapiens, UniProt P41595); test: Human 5-HT2B functional high throughput screening assay in CHO-K1 cells (calcium flux); type: cell-based; conditions: for Emax: 5-HT2B, maximum functional response as percentage relative to the effect of serotonin; for EC50: CHO-K1 cells, calcium flux
T1 construct: expressed in transfected cells; host or cells: CHO-K1 cells
T1 sequence (P41595 whole entry): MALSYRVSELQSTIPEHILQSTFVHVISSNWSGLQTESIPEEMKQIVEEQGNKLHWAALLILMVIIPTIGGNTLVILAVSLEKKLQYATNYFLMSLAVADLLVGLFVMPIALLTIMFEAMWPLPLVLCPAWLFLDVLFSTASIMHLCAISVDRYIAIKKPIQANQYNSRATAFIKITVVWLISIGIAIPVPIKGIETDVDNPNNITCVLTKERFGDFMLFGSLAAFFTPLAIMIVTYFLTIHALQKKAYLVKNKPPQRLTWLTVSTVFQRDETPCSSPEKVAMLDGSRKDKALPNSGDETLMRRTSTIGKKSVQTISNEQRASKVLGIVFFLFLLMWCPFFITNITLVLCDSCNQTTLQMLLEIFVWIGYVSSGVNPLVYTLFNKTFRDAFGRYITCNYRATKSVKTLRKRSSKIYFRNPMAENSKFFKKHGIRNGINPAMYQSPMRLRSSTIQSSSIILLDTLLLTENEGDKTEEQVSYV
Description: (§1) (iii) Human 5-HT2C and 5-HT2B Functional High Throughput Screening Assays in CHO-K1 Cells
(§2) CHO-K1 cells over-expressing 5HT2C or 5HT2B receptors were grown in 1272 cm^2 flasks to 70-80% confluency in UltraCHO media (Lonza, Walkersville, Md.) supplemented with 1% dialyzed fetal bovine serum (FBS), 250 μg/mL zeocin, 100 U/mL penicillin and 100 μg/mL streptomycin, and 400 μg/mL geneticin. The cells were dissociated from the flasks using 0.05% trypsin, resuspended in Recovery™ cell culture freezing medium (Invitrogen, Carlsbad, Calif.) and stored in liquid nitrogen until use. The calcium flux experiments were done using frozen cells. The cells were diluted in media containing 1% dialyzed FBS and 100 U/mL penicillin and 100 μg/mL streptomycin and plated into 384-well poly-D-Lysine coated plates (15,000 cells/well). Then the plates were incubated overnight in a cell incubator at 37° C., 5% CO2. On the next day, the growth media was replaced with media without FBS and further incubated overnight. On day three, the changes in intracellular Ca^2+ were determined using calcium sensitive fluorescent dye, Ca4 (MDS Analytical Technologies, Sunnyvale, Calif.) by loading 15 μL of diluted dye in Hank's Balanced Salt Solution and 20 mM Hepes buffer (pH 7.4) with final concentration of 2.5 mM probenecid into the cells containing media. Then the cells were incubated at room temperature for 60 minutes in dark.
(§3) After incubation, the cell plates were transferred to FLIPR™ (MDS) and their fluorescence measurements were read at an excitation wavelength of 480 nm and an emission wavelength of 530 nm at 25° C. The baseline fluorescence was measured for the first 10 seconds and then 15 μL of 4× concentration of serotonin/test compound was added to the cells. The fluorescence intensity was captured every second for the first 1 minute followed by every 5 seconds for an additional 2 minutes. The increase in fluorescent response by a test compound was normalized to the response of serotonin and used to determine agonist activity. The concentration response of compounds was done from a starting concentration of 10 μM, 1:10 dilution across 6 wells with a final dimethyl sulfoxide concentration of 0.2% and was fitted using a 4-parameter logistic equation. The concentration at which a compound exerts half its maximal effect was named as ‘effective concentration 50’ or ‘EC50’. Emax is the maximum functional response or efficacy expressed as a percentage relative to the effect of serotonin.

[2] = molecular target: T2, 5HT2C receptors (Homo sapiens, UniProt P28335); test: Human 5-HT2C functional high throughput screening assay in CHO-K1 cells (calcium flux); type: cell-based; parameters: expressed in transfected cells; host or cells: CHO-K1 cells; conditions: for Emax: CHO-K1, 5-HT2C, maximum functional response as percentage relative to the effect of serotonin; for EC50: CHO-K1 cells, calcium flux
T2 sequence (P28335 33-458): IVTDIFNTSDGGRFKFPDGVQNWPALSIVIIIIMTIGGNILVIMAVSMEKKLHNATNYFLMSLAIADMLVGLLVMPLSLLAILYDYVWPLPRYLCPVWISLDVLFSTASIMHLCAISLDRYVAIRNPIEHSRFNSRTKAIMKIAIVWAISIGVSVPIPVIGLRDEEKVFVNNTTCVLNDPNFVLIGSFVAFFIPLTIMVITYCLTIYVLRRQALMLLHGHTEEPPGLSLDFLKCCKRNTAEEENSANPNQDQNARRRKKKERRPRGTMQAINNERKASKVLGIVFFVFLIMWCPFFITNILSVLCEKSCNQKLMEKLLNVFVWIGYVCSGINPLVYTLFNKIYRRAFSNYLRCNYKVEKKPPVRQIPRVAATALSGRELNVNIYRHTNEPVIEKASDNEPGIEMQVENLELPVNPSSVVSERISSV
Description: as §1, §2, §3

[3] = 5-HT2B agonist activity, read-out: EC50
[4] = 5-HT2C agonist activity, read-out: EC50

SMILES | Emax [1] | EC50 [1, 3] | EC50 [2, 4] | Emax ([2]; read-out: Emax) | EC50 ([1]; EC50, 5-HT2B agonist activity) | Emax [2] | EC50 ([2]; EC50, 5-HT2C agonist activity)
O=C1NC[C@@H]2CNC[C@H]2c2ccc(OCCc3ccccc3)cc21 (relative stereo) [Example 123, Trans-8-phenethoxy-1,2,3,3a,4,5-hexahydrobenzo[e]pyrrolo[3,4-c]azepin-6(10bH)-one] | inactive |  |  |  | > 10 µM | 120% | 0.01 µM
CN1C[C@H]2CNC(=O)c3cc(C(=O)Nc4ccccc4)ccc3[C@@H]2C1 (relative stereo) [Example 128, Trans-2-methyl-6-oxo-N-phenyl-1,2,3,3a,4,5,6,10b-octahydrobenzo[e]pyrrolo[3,4-c]azepine-8-carboxamide] | inactive | > 10 µM | 2 µM | 50% |  |  | 
COC(=O)c1ccc2c(c1)C(=O)NC[C@@H]1CN(Cc3ccccc3)C[C@@H]21 (relative stereo) [Example 129, Trans-methyl 2-benzyl-6-oxo-1,2,3,3a,4,5,6,10b-octahydrobenzo[e]pyrrolo[3,4-c]azepine-8-carboxylate] | inactive | > 10 µM | 0.2 µM | > 120% |  |  | 
COc1ccc2c(c1)C(=O)NC[C@@H]1CN(Cc3ccccc3)C[C@H]21 (relative stereo) [Example 130, Cis-2-benzyl-8-methoxy-1,2,3,3a,4,5-hexahydrobenzo[e]pyrrolo[3,4-c]azepin-6(10bH)-one] | inactive | > 10 µM | 0.9 µM | 100% |  |  | 
COc1ccc(-c2ccc3c(c2)C(=O)NC[C@@H]2CN(C)C[C@@H]32)cc1 (relative stereo) [Example 131, Trans-8-(4-methoxyphenyl)-2-methyl-1,2,3,3a,4,5-hexahydrobenzo[e]pyrrolo[3,4-c]azepin-6(10bH)-one] | inactive | > 10 µM |  | > 120% |  |  | 
CN1C[C@H]2CNC(=O)c3cc(-c4cccc(OC(F)(F)F)c4)ccc3[C@@H]2C1 (relative stereo) [Example 132, Trans-2-methyl-8-(3-(trifluoromethoxy)phenyl)-1,2,3,3a,4,5-hexahydrobenzo[e]pyrrolo[3,4-c]azepin-6(10bH)-one] | inactive | > 10 µM | 0.02 µM | > 120% |  |  | 

Further lines, with some results ahead:

Emax [1] | EC50 [1, 3] | EC50 [2, 4] | Emax ([2]; read-out: Emax) | SMILES | EC50 ([1]; EC50, 5-HT2B agonist activity) | Emax [2] | EC50 ([2]; EC50, 5-HT2C agonist activity)
inactive | > 10 µM | 0.02 µM | > 120% | O=C1NC[C@@H]2CNC[C@H]2c2ccc(OCCc3cccc(F)c3)cc21 (relative stereo) [Example 124, Trans-8-(3-fluorophenethoxy)-1,2,3,3a,4,5-hexahydrobenzo[e]pyrrolo[3,4-c]azepin-6(10bH)-one] |  |  | 
inactive | > 10 µM | 2 µM | 90% | CNC(=O)c1ccc2c(c1)C(=O)NC[C@@H]1CN(C)C[C@@H]21 (relative stereo) [Example 125, Trans-N,2-dimethyl-6-oxo-1,2,3,3a,4,5,6,10b-octahydrobenzo[e]pyrrolo[3,4-c]azepine-8-carboxamide] |  |  | 
inactive | > 10 µM | 6 µM | 60% | CN1C[C@H]2CNC(=O)c3cc(C(=O)NCCc4ccccc4)ccc3[C@@H]2C1 (relative stereo) [Example 126, Trans-2-methyl-6-oxo-N-phenethyl-1,2,3,3a,4,5,6,10b-octahydrobenzo[e]pyrrolo[3,4-c]azepine-8-carboxamide] |  |  | 
inactive | > 10 µM | 1 µM | 80% | CN1C[C@H]2CNC(=O)c3cc(C(=O)NCCc4cccc(C(F)(F)F)c4)ccc3[C@@H]2C1 (relative stereo) [Example 127, Trans-2-methyl-6-oxo-N-(3-(trifluoromethyl)phenethyl)-1,2,3,3a,4,5,6,10b-octahydrobenzo[e]pyrrolo[3,4-c]azepine-8-carboxamide] |  |  | 
